Measured values: PubChem BioAssay (NCI)
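A five-concentration, 48-hour dose response in 96-well plates underlies each endpoint, interpolated linearly between surrounding concentrations. TGI: concentration producing complete growth inhibition.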

Legend:
Experiment in all cases: NCI-60 cell line screen, 48 h
[1] = test system: 786-0 renal
[2] = test system: EKVX NSCLC
[3] = test system: HCT-15 colon
[4] = test system: LOX IMVI melanoma
[5] = test system: NCI-H23 lung
[6] = test system: NCI-H460 lung
[7] = test system: OVCAR-5 ovarian
[8] = test system: OVCAR-8 ovarian
[9] = test system: SF-539 CNS
[10] = test system: SK-OV-3 ovarian
[11] = test system: BT-549 breast
[12] = test system: TK-10 renal

Structure (SMILES)	TGI [1] [µM]	TGI [2] [µM]	TGI [3] [µM]	TGI [4] [µM]	TGI [5] [µM]	TGI [6] [µM]	TGI [7] [µM]	TGI [8] [µM]	TGI [9] [µM]	TGI [10] [µM]	TGI [11] [µM]	TGI [12] [µM]
Fc1ccc2c3c([nH]c2c1)CCN(Cc1ccccc1)C3	30	48.7	36.5	33.5	42.4	33.1	47.9	39.6	39	39.5	–	–
N[C@@H]1CCN(c2c(F)cc3c(=O)c(C(=O)O)cn4c3c2Oc2cc3c(ccc5ccccc53)cc2-4)C1	> 100	–	> 100	> 63.7	> 100	7.01	97	18.1	28.5	–	> 100	–
O=C(CSCC(=O)N/N=C\c1cccc([N+](=O)[O-])c1)N/N=C\c1cccc([N+](=O)[O-])c1	63.6	> 100	67.8	> 100	31.1	> 100	–	> 100	84.7	> 100	–	36.4
COc1c(C(=O)NCCN(CCNC(=O)c2cccc(-c3cccc(C(=O)N(C)C)c3OC)c2OC)CCNC(=O)c2cccc(-c3cccc(C(=O)N(C)C)c3OC)c2OC)cccc1-c1cccc(C(=O)N(C)C)c1OC	> 100	> 100	> 100	33.7	> 100	> 100	> 100	> 100	36.2	> 100	–	–
Cc1ccc2nc(C(C)C)c(=O)[nH]c2c1	> 100	> 100	> 100	–	> 100	> 100	> 100	> 100	> 100	> 100	> 100	> 100
CC(C)C1NC(=O)CC(c2ccccc2)N(N=O)C1c1ccccc1 (stereo not given)	–	> 100	> 100	> 100	> 100	> 100	> 100	> 100	> 100	> 100	–	–
COc1ccc2c(c1)CCCN1CCc3ccccc3C21 (stereo not given)	69.9	> 100	> 100	> 100	> 100	> 100	> 100	> 100	75.8	> 100	–	> 100
CC(=O)O[C@H]1C(=O)[C@@]2(C)[C@H]([C@H](OC(=O)c3ccccc3)[C@]3(O)C[C@H](OC(=O)[C@H](O)[C@@H](NC(=O)c4ccco4)c4ccccc4)C(C)=C1C3(C)C)[C@]1(OC(C)=O)CO[C@@H]1C[C@@H]2O	> 12.5	> 12.5	> 12.5	> 12.5	> 12.5	> 12.5	> 12.5	> 12.5	0.00454	0.0107	–	> 12.5
CC1=CC[C@@]2(C)CC[C@](O)(C(C)C)C2C(OC(=O)c2ccccc2)C1 (stereo not given in full)	33.4	32.3	34.2	42	38.9	40.6	30.1	37.5	37.4	28.8	–	35.3
CCOC(=O)/C(=N/Nc1ccccc1)N1C(=S)C=C(C)NN(C)C1=S	–	> 100	> 100	–	> 100	> 100	> 100	> 100	> 100	> 100	> 100	> 100
Cn1cc2ccccc2c1-c1nc(F)nc(Oc2ccc3c(c2)CC[C@@H]2C3CC[C@@]3(C)C2C[C@H](O)[C@@H]3O)n1 (stereo not given in full)	31.3	40.7	24.6	–	42.9	83	39.2	34.1	28.9	52.2	–	54.6
COc1ccc(-c2c3c(n(C4OC(CO)C(O)C(O)C4O)c(=S)c2C#N)CCCC3)cc1 (stereo not given)	> 100	> 100	> 100	> 100	> 100	> 100	> 100	> 100	> 100	> 100	–	> 100
CCCCCCCCCOCC(COP(=O)([O-])OCC[N+](C)(C)C)OC (stereo not given)	–	> 100	> 100	> 100	> 100	> 100	> 100	> 100	> 100	> 100	–	–
O=C(c1ccc(Cl)cc1)c1ccc(OCCCOc2ccc(C(=O)c3ccc(Cl)cc3)cc2Cl)c(Cl)c1	> 100	> 100	> 100	> 100	> 100	> 100	> 100	> 100	> 100	> 100	–	> 100
CC(=O)OCC(=O)OC[C@H](OCc1ccccc1)[C@@H]1[C@H](OC(C)=O)C(=O)N1Cc1ccccc1	> 100	> 100	> 100	> 100	> 100	–	> 100	> 100	–	> 100	–	> 100
O=C1NN(Cc2ccccc2)C(=O)N2CCC[C@@H]12	> 100	> 100	> 100	> 100	> 100	> 100	> 100	> 100	> 100	> 100	–	> 100
CC1CCC2CC(=O)OC([C@@H]3C(=O)O[C@@H](C4=CCCC4)C4C(C)CCC43)C12 (stereo not given in full)	> 100	> 100	> 100	> 100	> 100	> 100	–	> 100	> 100	> 100	–	> 100
O=C1/C(=C/c2ccccc2[N+](=O)[O-])N=C(c2ccccc2)N1c1nc2ccccc2s1	58.8	> 100	56.8	56.8	41.4	> 100	> 100	39.7	81.3	–	49.4	> 100
O=C1O[C@H]2[C@H](OC(=O)c3cc(O)c(O)c(O)c3)[C@@H](OC(=O)c3cc(O)c(O)c4c3[C@@H]3C1=CC(=O)C(O)(O)C3(O)O4)[C@H](OC(=O)c1cc(O)c(O)c(O)c1)O[C@@H]2COC(=O)c1cc(O)c(O)c(O)c1 (stereo not given in full)	> 100	> 100	> 100	> 100	> 100	> 100	> 100	> 100	–	> 100	> 100	–
CCOC(=O)CC(NC(=O)c1[nH]cnc1/N=N/N(C)C)C(=O)OCC (stereo not given)	> 100	> 100	> 100	> 100	> 100	> 100	> 100	> 100	> 100	> 100	–	> 100
